From ChEMBL document CHEMBL4014323, “Hydroxy-Substituted Heteroarylpiperazines: Novel Scaffolds for β-Arrestin-Biased D2R Agonists” (J Med Chem, 2017)

Tests used:
D(4) dopamine receptor = biological target: T1, D(4) dopamine receptor (Homo sapiens, UniProt P21917); experiment: biochemical; assay type: cell-based
T1 sequence (P21917 whole entry): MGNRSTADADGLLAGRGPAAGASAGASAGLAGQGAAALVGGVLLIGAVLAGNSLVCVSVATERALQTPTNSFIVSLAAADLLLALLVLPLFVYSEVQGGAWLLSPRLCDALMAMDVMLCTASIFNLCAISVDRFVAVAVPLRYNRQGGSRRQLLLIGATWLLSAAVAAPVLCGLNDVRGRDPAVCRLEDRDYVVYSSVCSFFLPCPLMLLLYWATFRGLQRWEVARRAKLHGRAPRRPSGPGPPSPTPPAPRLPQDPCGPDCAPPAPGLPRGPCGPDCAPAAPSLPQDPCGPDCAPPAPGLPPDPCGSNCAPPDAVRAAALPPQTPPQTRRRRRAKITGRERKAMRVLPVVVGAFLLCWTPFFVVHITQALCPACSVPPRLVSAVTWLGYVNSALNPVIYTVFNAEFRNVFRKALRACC
Description: Displacement of [3H]spiperone from human D4R expressed in CHO cell membranes by radioligand binding assay

HEK293 = experiment: Cytotoxicity against HEK293 cells; assay type: cell-based; settings: human
D(1A) dopamine receptor = D(1A) dopamine receptor (Homo sapiens, UniProt P21728); experiment: biochemical
Description: Displacement of [3H]SCH23390 from human D1R expressed in HEK293T cell membranes by radioligand binding assay

D(1B) dopamine receptor = D(1B) dopamine receptor (Homo sapiens, UniProt P21918); experiment: biochemical
Description: Displacement of [3H]SCH23390 from human D5R expressed in HEK293T cell membranes by radioligand binding assay

[1] = biological target: 5-hydroxytryptamine receptor 2A (Homo sapiens, UniProt P28223); experiment: biochemical
Description: Displacement of [3H]ketanserin from human 5-HT2AR expressed in HEK293T cell membranes by radioligand binding assay

D(2) dopamine receptor [2] = biological target: T2, D(2) dopamine receptor (Homo sapiens, UniProt P14416); experiment: biochemical; assay type: cell-based
Description: Displacement of [3H]spiperone from human D2LR expressed in CHO cell membranes by radioligand binding assay

D(2) dopamine receptor [3] = biological target: T2, D(2) dopamine receptor; experiment: biochemical; assay type: cell-based; remark: listed apart in the source
Description: Displacement of [3H]spiperone from human D2SR expressed in CHO cell membranes by radioligand binding assay

D(2) dopamine receptor [4] = biological target: T2, D(2) dopamine receptor; assay type: cell-based, HEK-293T
Description: Partial agonist activity at human D2SR expressed in HEK293T cells co-expressing (EA)beta-arrestin2 assessed as induction of beta-arrestin2 recruitment after 5 hrs by chemiluminescence assay

D(2) dopamine receptor [5] = biological target: T2, D(2) dopamine receptor; settings: HEK-293T, at 1e-07 to 100 µM
Description: Agonist activity at human D2S receptor expressed in HEK293T cell membranes coexpressing Galphao1 assessed as induction of nucleotide exchange at 0.1 pM to 100 uM preincubated for 30 mins followed by addition of [35S]GTPgammaS measured after 30 mins by [35S]GTPgammaS binding assay relative to quinpirole

D(2) dopamine receptor [6] = biological target: T2, D(2) dopamine receptor; assay type: functional, cell-based, HEK-293T
Description: Agonist activity at human D2S receptor expressed in HEK293T cell membranes coexpressing Galphao1 assessed as induction of nucleotide exchange preincubated for 30 mins followed by addition of [35S]GTPgammaS measured after 30 mins by [35S]GTPgammaS binding assay

D(2) dopamine receptor [7] = biological target: T2, D(2) dopamine receptor; experiment: Agonist activity at human D2S receptor expressed in HEK293T cell membranes coexpressing Galphao1 assessed as induction of nucleotide exchange at 30 uM preincubated for 30 mins followed by addition of [35S]GTPgammaS measured after 30 mins by [35S]GTPgammaS binding assay relative to quinpirole; assay type: functional; settings: HEK-293T
D(2) dopamine receptor [8] = biological target: T2, D(2) dopamine receptor; assay type: cell-based, HEK-293T; remark: listed apart in the source
Description: Partial agonist activity at human D2SR expressed in HEK293T cells co-expressing (EA)beta-arrestin2 and GRK2 assessed as induction of beta-arrestin2 recruitment after 5 hrs by chemiluminescence assay

Liver = experiment: Metabolic stability in Sprague-Dawley rat liver microsomes at 20 uM measured after 15 mins by HPLC-based mass-spectrometry; assay type: ADME, microsome; settings: 0.25 h
[9] = Half life in Sprague-Dawley rat liver microsomes at 20 uM by HPLC analysis; assay type: ADME, microsome
[10] = Intrinsic clearance in Sprague-Dawley rat liver microsomes assessed per mg protein at 20 uM by HPLC analysis; assay type: ADME, microsome; settings: read-out: CLH
[11] = Binding affinity to microsomal protein in Sprague-Dawley rat liver microsomes after 60 mins in absence of NADPH by HPLC analysis; assay type: ADME; settings: 1 h
[12] = Binding affinity to microsomal protein in Sprague-Dawley rat liver microsomes after 60 mins in presence of NADPH by HPLC analysis; assay type: ADME; settings: read-out: PB (converted)
[13] = biological target: T3, Voltage-gated inwardly rectifying potassium channel KCNH2 (Homo sapiens, UniProt Q12809); experiment: Inhibition of human ERG expressed in CHO cells assessed as reduction in tail current at 1 uM and -40 holding potential by automated patch-clamp assay; assay type: cell-based
hERG (KCNH2) [14] = biological target: T4, hERG (KCNH2) (Homo sapiens, UniProt Q12809); experiment: Inhibition of human ERG expressed in CHO cells assessed as tail current remaining at 10 uM and -40 holding potential by automated patch-clamp assay; assay type: cell-based; settings: CHO cells expressing human ERG, read-out: Activity
hERG (KCNH2) [15] = biological target: T4, hERG (KCNH2); experiment: Inhibition of human ERG expressed in CHO cells assessed as tail current remaining at 50 uM and -40 holding potential by automated patch-clamp assay; assay type: cell-based; settings: CHO cells expressing human ERG, read-out: Activity
[16] = biological target: T3, Voltage-gated inwardly rectifying potassium channel KCNH2; experiment: Inhibition of human ERG expressed in CHO cells assessed as reduction in tail current at -40 holding potential by automated patch-clamp assay; assay type: cell-based

T2 sequence (P14416 whole entry): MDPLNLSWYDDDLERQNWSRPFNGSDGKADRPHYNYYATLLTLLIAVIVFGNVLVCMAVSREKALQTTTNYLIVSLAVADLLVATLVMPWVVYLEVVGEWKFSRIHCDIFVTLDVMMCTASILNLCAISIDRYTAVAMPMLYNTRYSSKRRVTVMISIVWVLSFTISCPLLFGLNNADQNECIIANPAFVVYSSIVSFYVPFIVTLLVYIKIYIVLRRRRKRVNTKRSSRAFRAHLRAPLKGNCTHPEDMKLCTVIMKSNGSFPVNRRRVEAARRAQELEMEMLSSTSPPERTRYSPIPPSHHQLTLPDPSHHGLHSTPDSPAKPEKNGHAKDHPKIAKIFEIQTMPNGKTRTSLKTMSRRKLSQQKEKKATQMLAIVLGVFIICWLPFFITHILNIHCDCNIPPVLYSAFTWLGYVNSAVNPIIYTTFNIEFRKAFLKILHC
Sequence of 5-hydroxytryptamine receptor 2A (P28223 whole entry): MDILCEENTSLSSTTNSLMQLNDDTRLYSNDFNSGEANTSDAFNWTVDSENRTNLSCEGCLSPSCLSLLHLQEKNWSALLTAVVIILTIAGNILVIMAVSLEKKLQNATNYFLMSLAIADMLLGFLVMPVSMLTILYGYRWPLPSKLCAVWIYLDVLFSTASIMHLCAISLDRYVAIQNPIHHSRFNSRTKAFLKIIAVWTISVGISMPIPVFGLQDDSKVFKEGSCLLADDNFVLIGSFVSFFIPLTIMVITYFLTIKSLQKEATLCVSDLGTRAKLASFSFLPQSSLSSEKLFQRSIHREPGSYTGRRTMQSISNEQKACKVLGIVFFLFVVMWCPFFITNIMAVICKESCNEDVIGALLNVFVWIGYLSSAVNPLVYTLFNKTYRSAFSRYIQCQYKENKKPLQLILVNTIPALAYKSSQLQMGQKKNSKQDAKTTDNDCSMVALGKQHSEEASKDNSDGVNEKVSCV
T3 sequence (Q12809 whole entry): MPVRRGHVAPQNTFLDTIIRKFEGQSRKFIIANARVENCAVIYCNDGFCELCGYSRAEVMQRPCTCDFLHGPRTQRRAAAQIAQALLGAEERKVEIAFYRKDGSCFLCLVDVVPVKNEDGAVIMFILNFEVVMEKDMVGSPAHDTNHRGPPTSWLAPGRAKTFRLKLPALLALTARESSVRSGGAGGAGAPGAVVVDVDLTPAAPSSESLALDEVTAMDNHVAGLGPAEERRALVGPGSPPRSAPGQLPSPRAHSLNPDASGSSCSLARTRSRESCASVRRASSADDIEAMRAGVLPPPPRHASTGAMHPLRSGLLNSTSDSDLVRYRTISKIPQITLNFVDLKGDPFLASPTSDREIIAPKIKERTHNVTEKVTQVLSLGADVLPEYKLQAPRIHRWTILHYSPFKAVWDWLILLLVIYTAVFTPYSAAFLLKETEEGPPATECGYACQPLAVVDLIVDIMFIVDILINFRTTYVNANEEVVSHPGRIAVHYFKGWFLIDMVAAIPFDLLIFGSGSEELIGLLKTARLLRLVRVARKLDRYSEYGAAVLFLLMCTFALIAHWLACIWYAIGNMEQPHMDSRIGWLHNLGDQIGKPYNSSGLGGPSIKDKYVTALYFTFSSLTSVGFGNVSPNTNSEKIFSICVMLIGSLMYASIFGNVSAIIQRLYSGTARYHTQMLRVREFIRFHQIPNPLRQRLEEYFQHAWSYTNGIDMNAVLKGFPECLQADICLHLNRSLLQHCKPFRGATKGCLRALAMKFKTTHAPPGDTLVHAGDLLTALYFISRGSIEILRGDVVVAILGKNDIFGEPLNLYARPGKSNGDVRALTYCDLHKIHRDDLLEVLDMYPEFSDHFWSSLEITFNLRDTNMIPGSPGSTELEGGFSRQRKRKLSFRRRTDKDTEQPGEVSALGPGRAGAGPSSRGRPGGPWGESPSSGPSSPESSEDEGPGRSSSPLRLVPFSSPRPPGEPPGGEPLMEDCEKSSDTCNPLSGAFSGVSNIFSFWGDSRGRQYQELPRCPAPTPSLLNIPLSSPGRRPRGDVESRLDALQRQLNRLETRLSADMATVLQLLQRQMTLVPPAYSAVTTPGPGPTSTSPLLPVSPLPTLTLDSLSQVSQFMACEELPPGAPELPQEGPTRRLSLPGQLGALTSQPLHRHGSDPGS
Sequence of D(1A) dopamine receptor (P21728 whole entry): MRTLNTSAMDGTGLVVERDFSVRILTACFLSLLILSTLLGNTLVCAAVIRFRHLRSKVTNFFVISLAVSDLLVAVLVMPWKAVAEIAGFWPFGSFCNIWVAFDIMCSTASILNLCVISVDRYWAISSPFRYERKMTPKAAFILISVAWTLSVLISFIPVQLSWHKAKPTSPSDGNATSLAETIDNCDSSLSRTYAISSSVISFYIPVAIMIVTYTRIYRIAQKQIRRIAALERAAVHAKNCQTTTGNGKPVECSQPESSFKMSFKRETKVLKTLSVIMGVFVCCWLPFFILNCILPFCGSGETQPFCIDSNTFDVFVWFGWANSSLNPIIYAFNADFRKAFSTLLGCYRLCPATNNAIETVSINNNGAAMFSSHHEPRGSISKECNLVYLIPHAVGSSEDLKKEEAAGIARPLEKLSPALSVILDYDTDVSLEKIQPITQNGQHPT
Sequence of D(1B) dopamine receptor (P21918 whole entry): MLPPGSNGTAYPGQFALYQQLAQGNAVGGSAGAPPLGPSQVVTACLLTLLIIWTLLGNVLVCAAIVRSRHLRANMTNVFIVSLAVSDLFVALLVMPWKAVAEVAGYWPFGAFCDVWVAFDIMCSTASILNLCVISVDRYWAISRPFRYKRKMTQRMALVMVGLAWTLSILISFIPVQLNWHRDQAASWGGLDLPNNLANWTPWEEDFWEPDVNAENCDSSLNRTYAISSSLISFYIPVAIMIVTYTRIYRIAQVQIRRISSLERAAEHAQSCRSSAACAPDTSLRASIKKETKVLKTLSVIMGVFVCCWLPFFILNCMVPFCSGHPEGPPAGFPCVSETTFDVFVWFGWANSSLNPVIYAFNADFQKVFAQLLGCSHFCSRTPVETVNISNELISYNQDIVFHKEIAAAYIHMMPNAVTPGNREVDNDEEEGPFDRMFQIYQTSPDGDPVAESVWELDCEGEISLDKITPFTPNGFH
T4 sequence (Q12809 whole entry): as the sequence (Q12809 whole entry) above

Row | SMILES | Ki (D(4) dopamine receptor) | Activity (HEK293) | Ki (D(1A) dopamine receptor) | Ki (D(1B) dopamine receptor) | Ki [1] | Ki (D(2) dopamine receptor [2]) | Ki (D(2) dopamine receptor [3]) | EC50 (D(2) dopamine receptor [4]) | Emax (D(2) dopamine receptor [5]) | EC50 (D(2) dopamine receptor [6]) | EC50 (D(2) dopamine receptor [8]) | other results
1 | O=c1ccc2c(N3CCN(CCCCOc4ccn5nccc5c4)CC3)ccc(O)c2[nH]1 | 31 nM | Non-Toxic | 4700 nM | 13000 nM | 3600 nM | – | – | – | – | – | – | –
2 | O=c1ccc2c(N3CCN(CCCCOc4ccn5nccc5c4)CC3)ccc(O)c2o1 | 270 nM | Non-Toxic | > 20000 nM | > 20000 nM | 2800 nM | 40 nM | 19 nM | – | – | – | – | –
3 | O=C1CCc2ccc(OCCCCN3CCN(c4ccc(O)c5c4OCCO5)CC3)cc2N1 | 300 nM | Non-Toxic | 4500 nM | 16000 nM | 160 nM | 2.9 nM | 2.2 nM | – | – | – | – | –
4 | CCCCn1cc(CCCOc2ccc(C(=O)NCCCCN3CCCN(c4ccc(O)c5[nH]c(=O)ccc45)CC3)cc2OC)nn1 | 2100 nM | Non-Toxic | 4000 nM | > 20000 nM | 1500 nM | 200 nM | 220 nM | 1600 nM | – | – | – | –
5 | O=C1CCc2ccc(OCCCCN3CCN(c4ccc(O)c5ncccc45)CC3)cc2N1 | 94 nM | Non-Toxic | 1500 nM | 3400 nM | 39 nM | 3.4 nM | 1.5 nM | – | – | – | – | –
6 | CCCN[C@H]1CCc2nc(N)sc2C1 | – | – | – | – | – | – | – | – | 102% | – | – | –
7 | O=C1CCc2ccc(OCCCCN3CCN(c4ccc(O)c5oc(=O)ccc45)CC3)cc2N1 | 870 nM | Non-Toxic | > 20000 nM | > 20000 nM | > 20000 nM | 4.8 nM | 2 nM | – | – | – | – | –
8 | O=C1CCc2ccc(OCCCCN3CCCN(c4ccc(O)c5oc(=O)ccc45)CC3)cc2N1 | 5000 nM | Non-Toxic | > 20000 nM | > 20000 nM | 2300 nM | 100 nM | 37 nM | 220 nM | – | > 5000 nM | 130 nM | Emax (D(2) dopamine receptor [7]): 36%
9 | Oc1ccc(N2CCN(CCCCOc3ccn4nccc4c3)CC2)c2c1OCCO2 | 160 nM | Non-Toxic | 5300 nM | 19000 nM | 480 nM | 110 nM | 68 nM | – | – | – | – | –
10 | O=C1CCc2ccc(OCCCCN3CCCN(c4ccc(O)c5c4OCC(=O)N5)CC3)cc2N1 | 60 nM | Non-Toxic | 2700 nM | 15000 nM | 2000 nM | 1.6 nM | 1.6 nM | 470 nM | 26% | 78 nM | 630 nM | –
11 | O=C1CCc2ccc(OCCCCN3CCN(c4ccc(O)c5[nH]c(=O)ccc45)CC3)cc2N1 | 66 nM | Non-Toxic | 5400 nM | 9300 nM | 2200 nM | 0.89 nM | 1 nM | 93 nM | – | – | – | –
12 | O=C1CCc2ccc(OCCCCN3CCN(c4ccc(O)c5c4OCC(=O)N5)CC3)cc2N1 | 8.3 nM | Non-Toxic | 12000 nM | 4200 nM | 430 nM | 0.87 nM | 0.67 nM | 92 nM | – | – | – | –
13 | O=c1ccc2c(N3CCCN(CCCCOc4ccn5nccc5c4)CC3)ccc(O)c2[nH]1 | 190 nM | Non-Toxic | 13000 nM | > 20000 nM | 9000 nM | 78 nM | 46 nM | 370 nM | 56% | 90 nM | 250 nM | Stability (Liver): Unstable; half-life at 20 µM [9]: 51 min; microsomal CLint at 20 µM [10]: 27 µL/min/mg; PB [11]: Not Active
14 | O=C1CCc2ccc(OCCCCN3CCCN(c4ccc(O)c5[nH]c(=O)ccc45)CC3)cc2N1 | 75 nM | Non-Toxic | 11000 nM | > 20000 nM | 3400 nM | 1.6 nM | 0.81 nM | 190 nM | 55% | 67 nM | 200 nM | half-life at 20 µM [9]: 130 min; microsomal CLint at 20 µM [10]: 11 µL/min/mg; fraction unbound at 1 h [12]: 0.73; PB [11]: Not Active; inhibition (INH) [13]: Not Active; activity at 10 µM (hERG (KCNH2) [14]): 71.7%; activity at 50 µM (hERG (KCNH2) [15]): 21.5%; IC50 [16]: 19700 nM; inhibition (INH) ([16]; human): Dose-dependent effect
15 | CCCN(CCC)CCc1cccc2c1CC(=O)N2 [ROPINIROLE] | – | – | – | – | – | – | – | 89 nM | 92% | 330 nM | 30 nM | –
16 | O=C1COc2c(N3CCN(CCCCOc4ccn5nccc5c4)CC3)ccc(O)c2N1 | 4.8 nM | Non-Toxic | 2300 nM | 16000 nM | 1300 nM | 2 nM | 0.86 nM | 62 nM | – | – | – | –
17 | CCCCn1cc(CCCOc2ccc(C(=O)NCCCN3CCCN(c4ccc(O)c5[nH]c(=O)ccc45)CC3)cc2OC)nn1 | 3200 nM | Non-Toxic | 17000 nM | > 20000 nM | 4200 nM | 350 nM | 440 nM | 680 nM | – | – | – | –
18 | CCCN(CCc1cccs1)[C@H]1CCc2c(O)cccc2C1 [ROTIGOTINE] | – | – | – | – | – | – | – | 4.1 nM | 91% | 3.2 nM | 4.4 nM | Stability (Liver): Unstable; half-life at 20 µM [9]: 5.8 min; microsomal CLint at 20 µM [10]: 240 µL/min/mg
19 | Oc1ccc(N2CCN(CCCCOc3ccn4nccc4c3)CC2)c2cccnc12 | 55 nM | Non-Toxic | 1100 nM | 5800 nM | 200 nM | 33 nM | 25 nM | – | – | – | – | –
